Measurements as given in ChEMBL document CHEMBL5512631, “Research progress of DDR1 inhibitors in the treatment of multiple human diseases” (Eur J Med Chem, 2024).
pEC50, pIC50, pKd: −log10 of the molar value. In brackets after ≈: the same amount, converted by molar mass. Blank lines part the entries; values can stand above or below the molecule they belong to.

Tests used:
[1] = target: T1, Epithelial discoidin domain-containing receptor 1 (Homo sapiens, UniProt Q08345); assay: Inhibition of GST-tagged recombinant DDR1 (unknown origin) expressed in Escherichia coli BL21 by DiscoverX KINOMEscan assay
[2] = target: T2, Discoidin domain-containing receptor 2 (Homo sapiens, UniProt Q16832); assay: Inhibition of GST-tagged recombinant DDR2 (unknown origin) expressed in Escherichia coli BL21 by DiscoverX KINOMEscan assay
T2 sequence (Q16832 whole entry): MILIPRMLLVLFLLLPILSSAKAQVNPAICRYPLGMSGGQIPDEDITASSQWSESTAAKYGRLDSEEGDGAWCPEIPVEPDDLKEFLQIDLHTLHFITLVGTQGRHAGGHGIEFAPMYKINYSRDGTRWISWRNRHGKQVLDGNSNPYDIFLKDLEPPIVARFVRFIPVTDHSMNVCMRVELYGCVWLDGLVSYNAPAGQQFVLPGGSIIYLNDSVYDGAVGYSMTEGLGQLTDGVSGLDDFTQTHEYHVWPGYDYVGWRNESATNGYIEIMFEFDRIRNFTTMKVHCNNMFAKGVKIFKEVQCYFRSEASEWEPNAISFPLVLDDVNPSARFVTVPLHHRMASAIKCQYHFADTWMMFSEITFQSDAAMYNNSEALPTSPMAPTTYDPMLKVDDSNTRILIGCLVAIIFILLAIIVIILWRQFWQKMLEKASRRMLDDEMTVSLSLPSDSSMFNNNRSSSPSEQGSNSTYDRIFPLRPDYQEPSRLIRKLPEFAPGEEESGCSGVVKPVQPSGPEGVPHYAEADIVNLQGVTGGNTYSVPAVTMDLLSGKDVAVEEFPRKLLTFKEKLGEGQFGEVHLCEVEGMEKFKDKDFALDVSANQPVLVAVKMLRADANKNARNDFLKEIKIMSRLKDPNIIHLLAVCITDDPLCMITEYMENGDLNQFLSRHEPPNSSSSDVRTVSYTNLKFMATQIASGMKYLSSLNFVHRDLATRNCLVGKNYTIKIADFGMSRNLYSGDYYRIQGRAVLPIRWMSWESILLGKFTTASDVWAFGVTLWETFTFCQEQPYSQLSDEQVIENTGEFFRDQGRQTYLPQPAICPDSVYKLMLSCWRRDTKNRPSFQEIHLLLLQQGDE

[3] = Clearance in human liver microsomes measured upto […] by HPLC-MS/MS analysis; assay type: ADME, Microsome
[4] = Clearance in C57BL/6 mouse at 1 mg/kg, iv measured upto 8 hrs by HPLC analysis; assay type: ADME, organism-based; details: in vivo
[5] = Aqueous solubility of compound in phosphate buffer at pH 6.5; assay type: physicochemical
[6] = target: T1, Epithelial discoidin domain-containing receptor 1; assay: Inhibition of DDR1 (unknown origin)
[7] = target: Receptor-type tyrosine-protein kinase FLT3 (Homo sapiens) (UniProt P36888); assay: Inhibition of FLT3 (unknown origin) at 100 nM relative to control
[8] = target: Proto-oncogene tyrosine-protein kinase receptor Ret (Homo sapiens) (UniProt P07949); assay: Inhibition of RET (unknown origin) at 100 uM using Poly(4:1 Glu, Tyr) as substrate in presence of ATP by absorbance based analysis relative to control
[9] = target: T2, Discoidin domain-containing receptor 2; assay: Inhibition of flag-tagged DDR2 (unknown origin) by TR-FRET assay
[10] = target: T2, Discoidin domain-containing receptor 2; assay: Inhibition of human DDR2 by discoverX kinome scan assay
[11] = target: Vascular endothelial growth factor receptor 2 (Homo sapiens) (UniProt P35968); assay: Inhibition of KDR (unknown origin) at 100 nM by ADP-Glo assay relative to control
[12] = target: T1, Epithelial discoidin domain-containing receptor 1; assay: Inhibition of DDR1 (unknown origin) at 10 uM by DiscoverX KINOMEscan assay relative to control
[13] = target: T2, Discoidin domain-containing receptor 2; assay: Inhibition of DDR2 (unknown origin) using Fluorescein-Poly GAT as substrate by TR-FRET analysis
[14] = target: T1, Epithelial discoidin domain-containing receptor 1; assay: Inhibition of DDR1 (unknown origin) using Fluorescein-Poly GAT as substrate by TR-FRET analysis
[15] = tested on: U2OS; assay: Antiproliferative activity against human U2OS cells […] assessed as reduction in cell viability incubated for 24 hrs by MTT assay; assay type: functional, cell-based
[16] = Microsomal stability in rat liver microsomes assessed as intrinsic clearance; assay type: ADME, Microsome
[17] = target: T1, Epithelial discoidin domain-containing receptor 1; assay: Inhibition of flag-tagged DDR1 (unknown origin) by TR-FRET assay
[18] = target: Vascular endothelial growth factor receptor 2 (Homo sapiens) (UniProt P35968); assay: Inhibition of KDR (unknown origin) at 100 nM relative to control
[19] = target: T2, Discoidin domain-containing receptor 2; assay: Inhibition of DDR2 (unknown origin) by ADP-Glo assay
[20] = target: T1, Epithelial discoidin domain-containing receptor 1; assay: Binding affinity to DDR1 (unknown origin) assessed as dissociation constant

T1 sequence (Q08345 whole entry, the tested form may be a part): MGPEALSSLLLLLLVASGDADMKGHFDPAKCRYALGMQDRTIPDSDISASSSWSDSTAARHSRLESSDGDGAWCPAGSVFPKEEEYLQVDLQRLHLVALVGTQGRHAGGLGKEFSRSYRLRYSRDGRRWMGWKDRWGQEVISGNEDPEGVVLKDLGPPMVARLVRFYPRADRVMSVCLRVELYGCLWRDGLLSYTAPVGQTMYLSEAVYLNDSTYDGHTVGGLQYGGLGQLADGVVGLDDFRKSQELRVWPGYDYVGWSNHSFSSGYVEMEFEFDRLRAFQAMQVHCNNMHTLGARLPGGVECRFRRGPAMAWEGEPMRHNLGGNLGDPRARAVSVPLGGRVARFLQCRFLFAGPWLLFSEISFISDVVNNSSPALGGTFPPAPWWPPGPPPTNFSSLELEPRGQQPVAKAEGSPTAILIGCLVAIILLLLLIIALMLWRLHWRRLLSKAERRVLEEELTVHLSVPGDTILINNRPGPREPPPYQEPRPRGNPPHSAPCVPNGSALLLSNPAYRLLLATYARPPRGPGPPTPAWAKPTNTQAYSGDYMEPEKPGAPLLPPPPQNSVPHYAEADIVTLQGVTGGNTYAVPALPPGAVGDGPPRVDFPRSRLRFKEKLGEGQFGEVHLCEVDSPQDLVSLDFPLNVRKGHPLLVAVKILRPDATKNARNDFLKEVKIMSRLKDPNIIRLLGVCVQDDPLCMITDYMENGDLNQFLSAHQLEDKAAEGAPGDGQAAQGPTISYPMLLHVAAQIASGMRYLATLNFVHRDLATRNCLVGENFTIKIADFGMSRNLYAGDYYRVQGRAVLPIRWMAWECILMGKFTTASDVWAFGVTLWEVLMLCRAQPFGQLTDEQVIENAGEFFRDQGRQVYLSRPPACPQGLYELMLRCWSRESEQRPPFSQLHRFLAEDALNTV
Sequence of Vascular endothelial growth factor receptor 2 (Homo sapiens) (P35968 whole entry, the tested form may be a part): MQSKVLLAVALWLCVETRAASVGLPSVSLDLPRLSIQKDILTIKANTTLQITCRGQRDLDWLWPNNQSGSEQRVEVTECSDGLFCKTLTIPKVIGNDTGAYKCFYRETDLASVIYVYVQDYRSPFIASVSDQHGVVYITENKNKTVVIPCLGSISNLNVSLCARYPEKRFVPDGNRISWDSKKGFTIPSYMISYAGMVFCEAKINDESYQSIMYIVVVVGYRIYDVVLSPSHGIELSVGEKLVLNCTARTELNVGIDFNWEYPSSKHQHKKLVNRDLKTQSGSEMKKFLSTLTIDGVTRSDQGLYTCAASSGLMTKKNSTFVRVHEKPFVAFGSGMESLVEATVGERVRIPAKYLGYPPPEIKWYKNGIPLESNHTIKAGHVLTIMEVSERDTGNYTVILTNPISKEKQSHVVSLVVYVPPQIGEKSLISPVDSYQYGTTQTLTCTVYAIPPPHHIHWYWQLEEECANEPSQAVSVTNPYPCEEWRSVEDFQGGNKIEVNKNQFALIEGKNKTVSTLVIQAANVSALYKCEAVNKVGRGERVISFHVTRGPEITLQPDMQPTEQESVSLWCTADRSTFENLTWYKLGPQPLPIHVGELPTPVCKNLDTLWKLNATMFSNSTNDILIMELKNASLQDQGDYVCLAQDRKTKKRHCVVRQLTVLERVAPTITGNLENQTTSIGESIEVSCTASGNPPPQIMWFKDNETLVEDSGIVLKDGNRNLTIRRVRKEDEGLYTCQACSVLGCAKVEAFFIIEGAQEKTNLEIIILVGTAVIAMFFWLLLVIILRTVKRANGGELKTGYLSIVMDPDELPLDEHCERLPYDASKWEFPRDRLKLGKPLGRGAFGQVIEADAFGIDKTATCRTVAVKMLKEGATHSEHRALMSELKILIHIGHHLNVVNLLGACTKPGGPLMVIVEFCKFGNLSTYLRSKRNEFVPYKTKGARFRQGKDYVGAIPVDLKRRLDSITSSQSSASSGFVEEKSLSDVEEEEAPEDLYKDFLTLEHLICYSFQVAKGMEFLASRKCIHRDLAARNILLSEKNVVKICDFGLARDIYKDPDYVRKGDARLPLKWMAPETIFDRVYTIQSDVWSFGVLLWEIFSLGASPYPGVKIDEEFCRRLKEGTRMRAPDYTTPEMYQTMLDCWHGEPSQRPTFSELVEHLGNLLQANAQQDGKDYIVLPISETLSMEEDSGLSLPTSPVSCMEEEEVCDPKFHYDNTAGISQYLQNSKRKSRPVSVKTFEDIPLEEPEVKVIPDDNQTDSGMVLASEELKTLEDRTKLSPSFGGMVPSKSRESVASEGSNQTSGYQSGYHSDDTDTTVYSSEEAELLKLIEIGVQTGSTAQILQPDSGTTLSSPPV
Sequence of Proto-oncogene tyrosine-protein kinase receptor Ret (Homo sapiens) (P07949 whole entry, the tested form may be a part): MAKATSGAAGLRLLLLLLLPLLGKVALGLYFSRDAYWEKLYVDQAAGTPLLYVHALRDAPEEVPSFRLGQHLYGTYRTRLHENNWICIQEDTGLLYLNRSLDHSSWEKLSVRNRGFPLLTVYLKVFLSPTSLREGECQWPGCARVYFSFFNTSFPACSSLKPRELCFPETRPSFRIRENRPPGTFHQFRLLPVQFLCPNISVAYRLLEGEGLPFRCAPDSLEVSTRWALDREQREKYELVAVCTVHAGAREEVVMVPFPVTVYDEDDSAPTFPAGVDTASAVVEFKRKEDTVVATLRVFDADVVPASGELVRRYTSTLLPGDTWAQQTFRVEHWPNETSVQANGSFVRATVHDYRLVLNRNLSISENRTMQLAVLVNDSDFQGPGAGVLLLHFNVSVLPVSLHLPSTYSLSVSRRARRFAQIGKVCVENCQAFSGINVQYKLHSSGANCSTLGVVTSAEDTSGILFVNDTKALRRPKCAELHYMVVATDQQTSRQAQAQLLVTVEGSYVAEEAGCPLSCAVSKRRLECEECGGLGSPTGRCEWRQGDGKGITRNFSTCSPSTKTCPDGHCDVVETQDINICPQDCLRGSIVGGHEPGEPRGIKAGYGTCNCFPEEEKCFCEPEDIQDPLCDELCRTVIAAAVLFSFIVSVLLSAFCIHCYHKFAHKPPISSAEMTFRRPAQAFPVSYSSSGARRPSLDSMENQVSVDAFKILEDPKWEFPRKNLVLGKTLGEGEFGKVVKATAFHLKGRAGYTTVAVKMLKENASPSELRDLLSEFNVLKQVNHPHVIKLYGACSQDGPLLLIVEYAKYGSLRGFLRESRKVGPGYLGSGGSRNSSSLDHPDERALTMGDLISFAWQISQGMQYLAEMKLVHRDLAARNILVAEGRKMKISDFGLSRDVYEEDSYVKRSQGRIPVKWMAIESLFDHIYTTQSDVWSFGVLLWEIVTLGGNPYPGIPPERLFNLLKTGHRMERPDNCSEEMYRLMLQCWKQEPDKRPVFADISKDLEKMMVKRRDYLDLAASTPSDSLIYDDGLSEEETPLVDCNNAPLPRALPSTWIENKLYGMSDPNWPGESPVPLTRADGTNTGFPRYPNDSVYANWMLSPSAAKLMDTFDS
Sequence of Receptor-type tyrosine-protein kinase FLT3 (Homo sapiens) (P36888 whole entry): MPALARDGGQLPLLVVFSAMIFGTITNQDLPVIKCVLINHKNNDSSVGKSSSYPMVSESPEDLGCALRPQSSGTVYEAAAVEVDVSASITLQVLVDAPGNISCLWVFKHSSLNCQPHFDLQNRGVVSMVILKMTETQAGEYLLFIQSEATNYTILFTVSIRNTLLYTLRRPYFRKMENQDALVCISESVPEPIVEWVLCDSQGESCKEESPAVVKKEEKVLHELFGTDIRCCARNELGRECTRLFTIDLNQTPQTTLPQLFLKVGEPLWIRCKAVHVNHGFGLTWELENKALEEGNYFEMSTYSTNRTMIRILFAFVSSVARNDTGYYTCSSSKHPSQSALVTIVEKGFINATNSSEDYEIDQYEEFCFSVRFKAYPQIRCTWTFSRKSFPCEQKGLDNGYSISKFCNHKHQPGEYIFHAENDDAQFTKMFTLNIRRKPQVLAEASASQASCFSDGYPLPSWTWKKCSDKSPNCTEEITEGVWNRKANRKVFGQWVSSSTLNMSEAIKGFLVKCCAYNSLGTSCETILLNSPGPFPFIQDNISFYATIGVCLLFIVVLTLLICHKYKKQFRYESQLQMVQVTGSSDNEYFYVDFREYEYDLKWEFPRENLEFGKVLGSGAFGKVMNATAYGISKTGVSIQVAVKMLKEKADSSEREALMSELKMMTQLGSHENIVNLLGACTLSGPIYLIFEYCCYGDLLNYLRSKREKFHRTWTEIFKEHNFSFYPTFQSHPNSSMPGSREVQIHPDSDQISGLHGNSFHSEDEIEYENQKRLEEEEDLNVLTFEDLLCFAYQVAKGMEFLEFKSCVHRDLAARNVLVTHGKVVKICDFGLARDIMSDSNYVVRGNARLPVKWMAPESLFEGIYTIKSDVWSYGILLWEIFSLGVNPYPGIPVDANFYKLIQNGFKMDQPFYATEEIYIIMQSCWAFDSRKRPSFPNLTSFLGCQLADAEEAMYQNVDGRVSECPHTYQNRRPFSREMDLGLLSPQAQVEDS

Structure (SMILES): O=C(CN1CN(c2ccccc2)C2(CCN(C(=O)c3ccc4[nH]ncc4n3)CC2)C1=O)NCC(F)(F)F
- CLH [3]: 28 µL/min/mg
- pIC50 [1]: 7.74
- clearance [4]: 120 mL/min/kg
- solubility [5]: 365 µg/mL (≈ 708 µM)
- pIC50 [2]: 6.07

Structure (SMILES): Cc1c(-c2c3c(N)n[nH]c(=O)c3nn2-c2ccc(C(N)=O)cc2)oc2cc(C(=O)Nc3ccccc3C(F)(F)F)ccc12
- pIC50 [6]: 7.97

Structure (SMILES): Cc1cccc(C(=O)N[C@@H](C)c2ccc(C3CC3)c(-c3ccc4nc(Nc5cnn(C6CC6)c5)ncc4c3)c2)c1
- pIC50 [10]: 7.51
- inhibition [11]: 24.2%

Structure (SMILES): Cc1ccc2c(Nc3cccc(C(F)(F)F)c3)noc2c1C#Cc1cn2ncccc2n1
- pIC50 [1]: 8.00

Structure (SMILES): O=C(Cc1ccc(Cl)c(COc2ccccc2)c1)c1cccc(C(F)(F)F)c1
- pIC50 [6]: 7.03

Structure (SMILES): O=C(CN1C(=O)C2(CCN(C(=O)c3ccc4[nH]ncc4n3)CC2)c2c(Br)cccc21)NCC(F)(F)F
- CLH [3]: 10 µL/min/mg
- clearance [4]: 103 mL/min/kg

Structure (SMILES): Cc1ccc(C(=O)Nc2cccc(C(F)(F)F)c2)cc1NCc1cccc(C(N)=O)c1
- pIC50 [19]: 8.32

Now from value to molecule:

- pIC50 [1]: 7.82
- pIC50 [2]: 6.09
Structure (SMILES): O=C(CN1CN(c2ccccc2)C2(CCN(C(=O)c3ccc4[nH]ncc4c3)CC2)C1=O)NCC(F)(F)F

- inhibition [7]: 80.3%
- inhibition [8]: 97.2%
- pIC50 [9]: 8.66
Structure (SMILES): Cc1ccc(C(=O)Nc2cccc(C(F)(F)F)c2)cc1-c1ccc2nc(Nc3cnn(C)c3)ncc2c1

- inhibition [12]: 70.4%
Structure (SMILES): CCc1cccc2c(/C=C3\NC(=S)N(c4ccc(C)c(C)c4)C3=O)cn(CC(=O)NCCOC)c12

- pIC50 [13]: 8.15
- pIC50 [14]: 8.65
Structure (SMILES): Cc1cccc(Cl)c1NC(=O)c1cnc(Nc2cc(N3CCN(C(=O)OCCN4CCOCC4)CC3)ncn2)s1

- pEC50 [15]: 7.07
Structure (SMILES): CCN1CCN(Cc2ccc(C(=O)Nc3ccc(C)c(Oc4ccc5c(c4)CC(=O)N5)c3)cc2C(F)(F)F)CC1

- CLint [16]: 60 µL/min/mg
Structure (SMILES): Cc1ccc(C(=O)Nc2cccc(C(F)(F)F)c2)cc1Nc1cncc(C(N)=O)c1

- CLH [3]: 12 µL/min/mg
- clearance [4]: 110 mL/min/kg
Structure (SMILES): CNC(=O)CN1CN(c2ccccc2)C2(CCN(C(=O)c3ccc4[nH]ncc4c3)CC2)C1=O

- pIC50 [17]: 7.76
- inhibition [8]: 18.6%
- inhibition [18]: 100%
Structure (SMILES): O=C(Nc1cccc(C(F)(F)F)c1)c1ccc(C2CC2)c(-c2ccc3nc(Nc4cnn(C5CC5)c4)ncc3c2)c1

- pKd [20]: 8.66
- pIC50 [6]: 8.18
Structure (SMILES): CCc1ccc(C(=O)Nc2cc(CN3CCN(C)CC3)cc(C(F)(F)F)c2)cc1-c1cccc(-c2cnc3ccnn3c2)c1

- pIC50 [6]: 7.99
Structure (SMILES): CC(=O)Nc1ccc(-n2nc3c(=O)[nH]nc(N)c3c2-c2oc3cc(C(=O)Nc4ccccc4C(F)(F)F)ccc3c2C)cc1
